Measurements as given in patent publication US9221914B2, “Agents targeting CD138 and uses thereof” (BIOTEST AG, priority 2007, dated 2015).

Experiments:
[1] = tested on: MOLP-8 human multiple myeloma xenografts; assay: MOLP-8 human multiple myeloma xenograft in CB.17 SCID mice (Xenograft Mouse Experiments A, Part I); format: in vivo
Method: In these mice, subcutaneous tumors were established (female CB.17 SCID mice) by inoculation with MOLP-8 cell suspensions. Treatment with a single bolus intravenous injection was conducted when tumor volumes reached an average 113 mm^3. Changes in tumor volume and body weight were monitored twice per week.
Female CB.17 SCID mice, five weeks old, were obtained from Charles River Laboratories.
MOLP-8, a human multiple myeloma cell line, was supplied from ATCC.
Each mouse was inoculated with 1×10^7 MOLP-8 cells subcutaneously into the area under the right shoulder. The total volume was 0.2 ml per mouse, in which the ratio of serum-free medium to matrigel (BD Bioscience, Bedford, Mass.) was 1/1 (v/v). Prior to treatment, the xenograft tumors were monitored daily and were allowed to become established.
Eleven days after tumor cell inoculation, 42 mice were selected based on tumor volumes and body weights. […] The forty-two mice were randomly divided into seven groups (A-G) of six animals each based on tumor volume.
Each of six mice in Group A received 200 μl of PBS as vehicle control.
All agents were intravenously administered as a single bolus injection through a lateral tail vein with a 1 ml syringe fitted with a 27 gauge, ½ inch needle.
(§1) Tumor size was measured twice per week in three dimensions using the LabCat System (Tumor Measurement and Tracking, Innovative Programming Associated, Inc., Princeton, N.J.). The tumor volume in mm^3 was calculated using the methodology described in Tomayko et al., Cancer Chemother.

[2] = tested on: MOLP-8 tumor xenografts; assay: Bulky MOLP-8 tumor xenograft model in SCID mice (Part II / Xenograft Mouse Experiments B); format: in vivo; conditions: 450 μg/kg dose; mean time to reach 160 mm^3 minus mean time of control group
Method: In a second set of experiments, MOLP-8 cells (1.5×10^7 cells per mouse), suspended in a 50:50 mixture of serum free media and matrigel were injected subcutaneously in the area under the right shoulder in 100 μl. […] Each mouse in the control group (n=6) received 0.2 ml of sterile PBS administered into the lateral tail vein (i.v.) in a bolus injection. All treatment doses were based on conjugated maytansinoid. […] Mice were randomized into eleven groups (n=6) by tumor volume using the LabCat Program. […] The mice were dosed based on the individual body weight.
as §1
In this set of experiments, eighty-five mice were inoculated with MOLP-8 cells (1.5×10^7 cells/mouse) subcutaneously in the right shoulder.

Row | Substance | homogeneity of anti-tumor activity in individual mice ([1]; 250 μg/kg single i.v. dose) | median tumor volume over time post-inoculation ([1]; 250 μg/kg single i.v. dose, data not shown) | effect on tumor growth compared with PBS-treated animals ([1]; single i.v. bolus, 250 μg/kg (nBT062 antibody […])) | TGD (days), tumor growth delay [2]
1 | B-B4-SPP-DM1 [reference compound] | more heterogeneously and therefore less predicable | relatively better results for B-B4-SPP-DM1 than for nBT062-SPP-DM1 | marked delay in tumor growth | –
2 | nBT062-DM1: nBT062 conjugate with DM1, linker not stated at this place; TGD matches nBT062-SMCC-DM1 | – | – | – | 18 days
